Converted amounts (≈) assume the structure as drawn. The source made the active and inactive calls. No cut-off for these calls is given here.
Assays:
[1] = tested on: RAW264.7; assay: Cytotoxicity against Mus musculus (mouse) RAW264.7 cells; assay type: cell-based
[2] = Inhibition of PMA-induced NFkappaB activity in Homo sapiens (human) SW1353 cells incubated for 30 min followed by PMA induction for 8 hr by luciferase reporter gene assay; assay type: cell-based
[3] = target: T1, Nitric oxide synthase, inducible (Mus musculus, UniProt P29477); assay: Inhibition of iNOS in Mus musculus (mouse) RAW264.7 cells assessed as inhibition of LPS-induced nitrite production incubated for 30 min prior to LPS challenge measured after 24 hr by Griess assay; assay type: cell-based
T1 sequence (P29477 whole entry): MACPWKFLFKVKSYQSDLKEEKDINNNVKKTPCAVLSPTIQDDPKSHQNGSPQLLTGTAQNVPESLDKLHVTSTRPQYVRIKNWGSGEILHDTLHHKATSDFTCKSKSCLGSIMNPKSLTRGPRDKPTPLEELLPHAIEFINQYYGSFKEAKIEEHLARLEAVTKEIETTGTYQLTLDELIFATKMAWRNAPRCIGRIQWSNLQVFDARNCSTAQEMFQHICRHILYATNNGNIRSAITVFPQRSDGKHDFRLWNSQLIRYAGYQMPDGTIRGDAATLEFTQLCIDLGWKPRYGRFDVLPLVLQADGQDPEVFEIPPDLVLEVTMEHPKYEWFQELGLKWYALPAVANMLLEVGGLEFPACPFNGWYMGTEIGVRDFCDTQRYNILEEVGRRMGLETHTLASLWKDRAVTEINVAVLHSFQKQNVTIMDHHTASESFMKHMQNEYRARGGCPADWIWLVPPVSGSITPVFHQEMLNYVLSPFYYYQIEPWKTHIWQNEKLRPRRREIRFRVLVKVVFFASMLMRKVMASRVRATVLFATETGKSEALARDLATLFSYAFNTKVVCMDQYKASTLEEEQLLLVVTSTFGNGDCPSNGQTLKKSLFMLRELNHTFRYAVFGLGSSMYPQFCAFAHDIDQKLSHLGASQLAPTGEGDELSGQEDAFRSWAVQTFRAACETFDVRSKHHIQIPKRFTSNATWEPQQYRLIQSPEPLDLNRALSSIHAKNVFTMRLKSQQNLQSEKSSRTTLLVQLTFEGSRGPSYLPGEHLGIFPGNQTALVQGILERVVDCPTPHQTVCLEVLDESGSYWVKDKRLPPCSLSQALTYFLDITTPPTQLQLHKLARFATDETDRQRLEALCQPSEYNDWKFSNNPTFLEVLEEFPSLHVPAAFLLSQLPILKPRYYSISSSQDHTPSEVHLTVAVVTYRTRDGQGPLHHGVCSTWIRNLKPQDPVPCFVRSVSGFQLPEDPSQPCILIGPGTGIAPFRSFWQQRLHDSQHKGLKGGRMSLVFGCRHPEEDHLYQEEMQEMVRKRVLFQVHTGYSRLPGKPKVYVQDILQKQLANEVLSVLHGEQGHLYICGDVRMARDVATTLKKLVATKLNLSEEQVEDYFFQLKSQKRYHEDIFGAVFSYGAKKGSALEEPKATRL

[4] = tested on: Colletotrichum gloeosporioides; assay: Antifungal activity against Colletotrichum gloeosporioides assessed as growth inhibition at 30 uM after 72 hr by broth microdilution method; assay type: functional; conditions: read-out: GI
[5] = tested on: SW1353; assay: Inhibition of PMA-induced NFkappaB activity in Homo sapiens (human) SW1353 cells up to 25 ug/ml incubated for 30 min followed by PMA induction for 8 hr by luciferase reporter gene assay; assay type: cell-based
[6] = tested on: Fusarium oxysporum; assay: Antifungal activity against Fusarium oxysporum assessed as growth inhibition at 30 uM after 72 hr by broth microdilution method; assay type: functional; conditions: read-out: GI
[7] = tested on: HL-60; assay: Cytotoxicity against Homo sapiens (human) HL60 cells up to 25 ug/ml; assay type: cell-based
[8] = tested on: HL-60; assay: Antioxidant activity in PMA-stimulated Homo sapiens (human) HL60 cells assessed as inhibition of intracellular ROS generation up to 25 ug/ml incubated for 30 min prior to PMA stimulation measured after 30 min by DCFH-DA assay relative to vehicle-treated control; assay type: functional, cell-based
[9] = tested on: Candida parapsilosis; assay: Antifungal activity against Candida parapsilosis NRRL Y-12696 after 24 hr by NCCLS broth microdilution method; assay type: functional; conditions: Lodderomyces parapsilosis, NRRL Y-12696, 24 h
[10] = tested on: Candida albicans; assay: Antifungal activity against Candida albicans clinical isolate at 2000 ug/ml by agar diffusion method; assay type: functional; conditions: read-out: IZ
[11] = tested on: Candida albicans; assay: Antifungal activity against Candida albicans ATCC 90028 after 24 hr by NCCLS broth microdilution method; assay type: functional; conditions: ATCC 90028, 24 h
[12] = tested on: RAW264.7; assay: Cytotoxicity against Mus musculus (mouse) RAW264.7 cells up to 25 ug/ml; assay type: cell-based
[13] = tested on: BT-549; assay: Cytotoxicity against Homo sapiens (human) BT549 cells assessed as cell viability up to 25 ug/ml after 48 hr by neutral red assay; assay type: functional, cell-based
[14] = target: T2, Nitric oxide synthase, inducible (Mus musculus) (UniProt P29477); assay: Inhibition of iNOS in Mus musculus (mouse) RAW264.7 cells assessed as inhibition of LPS-induced nitrite production up to 25 ug/ml incubated for 30 min prior to LPS challenge measured after 24 hr by Griess assay relative to vehicle-treated control; assay type: cell-based
T2 sequence (whole entry): T1 sequence (P29477 whole entry)

[15] = tested on: Candida albicans; assay: Antifungal activity against Candida albicans clinical isolate after 24 hr by NCCLS broth microdilution method; assay type: functional
[16] = tested on: SK-MEL; assay: Cytotoxicity against Homo sapiens (human) SK-MEL cells assessed as cell viability up to 25 ug/ml after 48 hr by neutral red assay; assay type: functional, cell-based
[17] = tested on: Cyberlindnera jadinii; assay: Antifungal activity against Cyberlindnera jadinii NRRL Y-900 after 24 hr by NCCLS broth microdilution method; assay type: functional; conditions: Williopsis jadinii, NRRL Y-900, 24 h
[18] = target: Transcription factor Sp1 (Homo sapiens, UniProt P08047); assay: Inhibition of Sp1 (unknown origin) up to 25 ug/ml by luciferase reporter gene assay
Transcription factor Sp1, sequence (P08047 whole entry): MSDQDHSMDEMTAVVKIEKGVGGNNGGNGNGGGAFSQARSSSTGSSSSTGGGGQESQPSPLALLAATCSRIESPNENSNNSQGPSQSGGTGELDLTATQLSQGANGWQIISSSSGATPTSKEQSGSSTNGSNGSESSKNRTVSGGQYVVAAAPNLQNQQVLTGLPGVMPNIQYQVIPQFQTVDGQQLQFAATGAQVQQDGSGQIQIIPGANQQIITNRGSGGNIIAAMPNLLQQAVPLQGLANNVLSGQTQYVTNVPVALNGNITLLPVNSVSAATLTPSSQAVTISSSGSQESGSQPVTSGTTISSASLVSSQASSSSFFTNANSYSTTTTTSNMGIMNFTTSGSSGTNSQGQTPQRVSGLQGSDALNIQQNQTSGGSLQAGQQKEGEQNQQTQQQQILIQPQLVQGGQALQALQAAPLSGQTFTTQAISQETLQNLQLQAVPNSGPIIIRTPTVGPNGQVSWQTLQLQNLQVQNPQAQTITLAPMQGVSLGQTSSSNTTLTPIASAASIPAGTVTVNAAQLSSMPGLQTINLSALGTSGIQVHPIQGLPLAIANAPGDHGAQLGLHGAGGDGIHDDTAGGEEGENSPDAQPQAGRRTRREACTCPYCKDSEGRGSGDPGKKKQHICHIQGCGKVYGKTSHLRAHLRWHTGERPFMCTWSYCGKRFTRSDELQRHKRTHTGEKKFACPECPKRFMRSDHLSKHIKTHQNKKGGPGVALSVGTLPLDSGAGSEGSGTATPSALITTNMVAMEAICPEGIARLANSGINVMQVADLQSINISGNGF

[19] = Cytotoxicity against Sus scrofa (pig) LLC-PK11 cells assessed as cell viability up to 25 ug/ml after 48 hr by neutral red assay; assay type: cell-based; conditions: llc-pk11, 48 h
[20] = tested on: SK-OV-3; assay: Cytotoxicity against Homo sapiens (human) SKOV3 cells assessed as cell viability up to 25 ug/ml after 48 hr by neutral red assay; assay type: functional, cell-based
[21] = tested on: Vero; assay: Cytotoxicity against Chlorocebus aethiops (African green monkey) Vero cells assessed as cell viability up to 25 ug/ml after 48 hr by neutral red assay; assay type: cell-based; conditions: chlorocebus sabaeus
[22] = tested on: Candida tropicalis; assay: Antifungal activity against Candida tropicalis NRRL Y-12968 at 2000 ug/ml by agar diffusion method; assay type: functional; conditions: read-out: IZ
[23] = tested on: Botrytis cinerea; assay: Antifungal activity against Botryotinia fuckeliana at 0.3 to 30 uM after 48 to 72 hr by broth microdilution method; assay type: functional, organism-based
[24] = tested on: Candida albicans; assay: Antifungal activity against Candida albicans NRRL Y-12983 after 24 hr by NCCLS broth microdilution method; assay type: functional; conditions: NRRL Y-12983, 24 h
[25] = tested on: Pichia kudriavzevii; assay: Antifungal activity against Pichia kudriavzevii NRRL Y-7179 after 24 hr by NCCLS broth microdilution method; assay type: functional; conditions: NRRL Y-7179, 24 h
[26] = tested on: Colletotrichum fragariae; assay: Antifungal activity against Colletotrichum fragariae at 0.3 to 30 uM after 48 to 72 hr by broth microdilution method; assay type: functional, organism-based
[27] = tested on: KB; assay: Cytotoxicity against Homo sapiens (human) KB cells assessed as cell viability up to 25 ug/ml after 48 hr by neutral red assay; assay type: functional, cell-based
[28] = tested on: Nakaseomyces glabratus; assay: Antifungal activity against Candida glabrata clinical isolate after 24 hr by NCCLS broth microdilution method; assay type: functional
[29] = tested on: HL-60; assay: Cytotoxicity against Homo sapiens (human) HL60 cells; assay type: cell-based
[30] = tested on: Candida tropicalis; assay: Antifungal activity against Candida tropicalis NRRL Y-12968 after 24 hr by NCCLS broth microdilution method; assay type: functional; conditions: NRRL Y-12968, 24 h
[31] = tested on: Diaporthe ampelina; assay: Antifungal activity against Diaporthe ampelina assessed as growth inhibition at 30 uM after 144 hr by broth microdilution method; assay type: functional; conditions: read-out: GI

| IC50 [2] [µg/mL] | IC50 [3] [nM] | MIC [9] [µg/mL] | MIC [11] [µg/mL] | MIC [17] [µg/mL] | MIC [24] [µg/mL] | MIC [25] [µg/mL] | MIC [28] [µg/mL] | SMILES | inhibition of growth at 30 µM [4] [%] | inhibition [5] | inhibition [8] | zone of inhibition at 2000 µg/mL [10] [mm] | Activity [12] | Activity [13] | Activity [16] | Activity [19] | Activity [20] | Activity [21] | zone of inhibition at 2000 µg/mL [22] [mm] | Activity [27] | other results |
| --- | --- | --- | --- | --- | --- | --- | --- | --- | --- | --- | --- | --- | --- | --- | --- | --- | --- | --- | --- | --- | --- |
| 0.68 (≈ 2.74 µM) | 1610 | – | – | – | – | – | – | C=C1C(=O)O[C@@H]2C3O[C@]3(C)CC/C=C(\C)CC[C@@H]12 (some centres undefined) | – | – | – | – | – | – | – | – | – | – | – | – | IC50 [1]: 13 µg/mL (≈ 52.4 µM) |
| – | – | 1000 (≈ 3110 µM) | 500 (≈ 1560 µM) | 1000 (≈ 3110 µM) | 500 (≈ 1560 µM) | 500 (≈ 1560 µM) | 250 (≈ 778 µM) | O=C(N/N=C/c1ccc(Br)cc1)c1ccc(F)cc1 | 22 | inactive | inactive | 9 | Non-toxic | inactive | inactive | Not Active | inactive | Not Active | 9 | inactive | inhibition of growth at 30 µM [6]: 35%; Activity [7]: Non-toxic; inhibition [14]: inactive; MIC [15]: 500 µg/mL (≈ 1560 µM); inhibition (INH) [18]: Not Active; Activity [23]: inactive; Activity [26]: inactive |
| 2.8 (≈ 11.6 µM) | – | 250 (≈ 1030 µM) | 500 (≈ 2060 µM) | 500 (≈ 2060 µM) | 500 (≈ 2060 µM) | 500 (≈ 2060 µM) | 250 (≈ 1030 µM) | O=C(N/N=C/c1ccccc1)c1ccc(F)cc1 | – | – | inactive | 9 | Non-toxic | inactive | inactive | Not Active | inactive | Not Active | 9 | inactive | Activity [7]: Non-toxic; inhibition [14]: inactive |
| – | > 76400 | 250 (≈ 764 µM) | 250 (≈ 764 µM) | 250 (≈ 764 µM) | 125 (≈ 382 µM) | 250 (≈ 764 µM) | 250 (≈ 764 µM) | O=C(N/N=C/c1ccc(Br)s1)c1ccc(F)cc1 | 32 | inactive | inactive | 9 | Non-toxic | inactive | inactive | Not Active | inactive | Not Active | 9 | inactive | inhibition of growth at 30 µM [6]: 40%; MIC [15]: 250 µg/mL (≈ 764 µM); IC50 [29]: 16 µg/mL (≈ 48.9 µM); MIC [30]: 250 µg/mL (≈ 764 µM); inhibition (INH) [18]: Not Active; Activity [23]: inactive; Activity [26]: inactive; inhibition of growth at 30 µM [31]: 91% |

— ChEMBL document CHEMBL3046330, “Synthesis and biological activity of hydrazidehydrazones and their corresponding 3-acetyl-2,5-disubstituted-2,3-dihydro-1,3,4-oxadiazoles” (Med Chem Res, 2012)
